Experimental findings from patent publication US20250002473A1, “QUINOXALINE DERIVED SULFONAMIDES WITH EGFR DEGRADATION ACTIVITIES AND THEIR USES THEREOF” (Accutar Biotechnology Inc., priority 2023, published 2025) are described below.

Where two headings read alike, the source gives them in different places.

Holding throughout (format): cell-based
For one test, the system named is BaF3_ASV. The experiment in a line: Cell growth inhibition assay (CellTiter-Glo), BaF3_ASV. Conditions: 72 h; Table 6; BaF3_ASV cells, three days, CellTiter-Glo; read-out: BaF3_ASV GI50.
Another test has as its system A431. Description: Cell growth inhibition assay (CellTiter-Glo), A431. Conditions: Homo sapiens, A-431, 72 h, A431 cells, three days, read-out: A431 GI50. The method, boiled down: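 Cells were plated in 96-well plates (Corning 3610) at 90 μL of culture medium per well and incubated overnight at 37° C. The next day, a 1,000× DMSO compound stock was diluted 1:100 in cell culture medium, and 10 μL was added per well. After shaking for 10 min, luminescence was read on an Envision (PerkinElmer) reader.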

A further test deals with NCI-H2073. Description: Cell growth inhibition assay (CellTiter-Glo), NCI-H2073. To be noted: 72 h; Table 8; NCI-H2073 cells, three days. On the procedure: Cells were seeded in a 96-well plate (Corning 3610) with 90 μL of culture medium per well, and plates were incubated at 37° C. overnight. A 1,000× DMSO stock solution of the desired compound was prepared the following day. A compound dilution plate was prepared by diluting the stock solution 1:100 in the corresponding cell culture medium, 10 μL of the diluted compound solution was added to each 96-well plate well containing the seeded cells. […] The content of the wells was mixed by shaking continuously for 10 min, and luminescence was measured using Envision (PerkinElmer). The data were analyzed with GraphPad Prism 9 (see FIG. 50).
(§1) Table 6, Table 7, and Table 8 list the cell growth inhibition results, where Gls0 represents the compound concentration to cause 50% cell growth inhibition in comparison with DMSO.
On the technique in general: In ATP-based viability assays light output follows the ATP content of the culture.

The test system of another test is HCC827_LTC. The experiment in a line: Cell growth inhibition assay (CellTiter-Glo), HCC827_LTC. To be noted: 72 h; Table 8; HCC827 expressing human EGFR L858R/T790M/C797S, endogenous EGFR knockout, three days. On the procedure: (§2) HCC827_LTC and HCC827_DTC cell lines were generated by first transducing HCC827 cells (ATCC) with lentiviral particles expressing codon-optimized human EGFR L858R/T790M/C797S (LTC) mutant or Del19/T790M/C797S (DTC) mutant, and then selecting under 5 μg/ml puromycin treatment for a week. The endogenous EGFR alleles were subsequently abolished using the Alt-R™ CRISPR-Cas9 technology (Integrated DNA Technologies). Single clones of HCC827_LTC and HCC827_DTC were selected and validated for endogenous EGFR knockout using Sanger sequencing.
(§3) Cells were seeded in a 96-well plate (Corning 3610) with 90 μL of culture medium per well, and plates were incubated at 37° C. overnight. A 1,000× DMSO stock solution of the desired compound was prepared the following day. A compound dilution plate was prepared by diluting the stock solution 1:100 in the corresponding cell culture medium, 10 μL of the diluted compound solution was added to each 96-well plate well containing the seeded cells. Then, the cells were cultured at 37° C. for three days following compound treatment, 100 μL of CellTiter-Glo reagents (Promega G7573) was added to each well of the 96-well plate. The content of the wells was mixed by shaking continuously for 10 min, and luminescence was measured using Envision (PerkinElmer). The data were analyzed with GraphPad Prism 9 (see FIG. 50).
as §1

A further test concerns HCC827_DTC. Description: Cell growth inhibition assay (CellTiter-Glo), HCC827_DTC. Conditions: 72 h; Table 8; HCC827 expressing human EGFR Del19/T790M/C797S, endogenous EGFR knockout, three days. On the procedure: as §2, §3, §1
The subject of the next test is HCC827. Description: Cell growth inhibition assay (CellTiter-Glo), HCC827. Conditions: Homo sapiens, 72 h, Table 8, HCC827 cells, three days. On the procedure: as §2, §3, §1
Test [1] addresses T1, BaF3_ASV (EGFR_A776inASV) (Homo sapiens, UniProt P00533, DUP767-769).
T1 construct: expressed in transfected cells; host or cells: Ba/F3 (engineered)
Description: EGFR degradation assay (western blot), BaF3_ASV cells. Conditions: BaF3_ASV cells, compounds 24 h, western blot; read-out: BaF3_ASV DC50. The method, boiled down:
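Cells seeded overnight, then exposed to compounds for 24 h; lysates run on western blot, EGFR probed with tubulin loading control and fluorescent secondary detection. DC50 = concentration giving 50% EGFR degradation.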
For orientation: Immunoblotting shows a protein as a band on a membrane.

For another test, the system named is BaF3_DTC. The experiment in a line: Cell growth inhibition assay (CellTiter-Glo), BaF3_DTC. Conditions: 72 h; Table 6; BaF3_DTC cells, three days, CellTiter-Glo; read-out: BaF3_DTC GI50.

T1 sequence (P00533 with tags, fused parts or gaps DUP767-769): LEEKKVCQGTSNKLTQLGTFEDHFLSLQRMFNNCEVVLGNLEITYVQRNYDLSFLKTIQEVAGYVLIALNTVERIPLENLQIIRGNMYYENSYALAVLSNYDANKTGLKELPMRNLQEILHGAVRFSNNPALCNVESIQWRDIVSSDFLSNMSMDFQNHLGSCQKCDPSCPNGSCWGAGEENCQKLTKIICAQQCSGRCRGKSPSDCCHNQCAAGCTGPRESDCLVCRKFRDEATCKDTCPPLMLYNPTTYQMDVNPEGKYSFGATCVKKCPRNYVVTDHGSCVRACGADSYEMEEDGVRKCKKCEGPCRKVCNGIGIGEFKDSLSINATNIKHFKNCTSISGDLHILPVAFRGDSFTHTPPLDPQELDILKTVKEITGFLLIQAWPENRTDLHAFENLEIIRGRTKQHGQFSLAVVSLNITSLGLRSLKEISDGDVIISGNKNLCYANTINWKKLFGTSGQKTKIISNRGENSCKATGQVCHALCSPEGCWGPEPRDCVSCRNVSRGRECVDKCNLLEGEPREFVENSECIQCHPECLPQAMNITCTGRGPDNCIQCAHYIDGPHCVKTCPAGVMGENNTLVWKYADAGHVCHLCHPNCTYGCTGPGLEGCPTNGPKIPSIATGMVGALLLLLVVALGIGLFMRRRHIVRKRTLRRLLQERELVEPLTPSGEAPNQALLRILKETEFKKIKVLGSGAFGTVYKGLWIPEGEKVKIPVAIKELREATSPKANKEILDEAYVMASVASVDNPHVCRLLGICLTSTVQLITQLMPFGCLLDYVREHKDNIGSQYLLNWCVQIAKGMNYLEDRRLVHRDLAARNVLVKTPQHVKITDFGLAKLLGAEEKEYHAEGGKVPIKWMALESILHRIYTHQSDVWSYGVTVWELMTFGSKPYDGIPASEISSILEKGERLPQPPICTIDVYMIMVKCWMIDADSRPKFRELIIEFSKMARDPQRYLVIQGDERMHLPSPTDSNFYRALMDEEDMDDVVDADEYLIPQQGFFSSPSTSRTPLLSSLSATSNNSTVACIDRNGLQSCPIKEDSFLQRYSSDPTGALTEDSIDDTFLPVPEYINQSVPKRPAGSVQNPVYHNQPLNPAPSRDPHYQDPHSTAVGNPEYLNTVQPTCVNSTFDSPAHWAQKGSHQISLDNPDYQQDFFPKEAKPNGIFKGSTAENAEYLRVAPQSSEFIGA

As usually defined, the GI50 is the concentration that inhibits growth by half. What is called DC50 is the concentration giving 50% degradation. Take `CCn1c(=O)n(C2CCC(=O)NC2=O)c2cccc(CCN3CCN(C4CCN(c5cc(OC)c(Nc6ncc(Br)c(Nc7ccc8nccnc8c7NS(C)(=O)=O)n6)cc5-c5cnn(C)c5)CC4)CC3)c21` (stereo not drawn) [Compound 28, N-(6-((5-bromo-2-((4-(4-(4-(2-(1-(2,6-dioxopiperidin-3-yl)-3-ethyl-2-oxo-2,3-dihydro-1H-benzo[d]imidazol-4-yl)ethyl)piperazin-1-yl)piperidin-1-yl)-2-methoxy-5-(1-methyl-1H-pyrazol-4-yl)phenyl)amino)pyrimidin-4-yl)amino)quinoxalin-5-yl)methanesulfonamide]: the GI50 in the test with BaF3_ASV is 0.0563 µM; in the test on A431 (Table 6, CellTiter-Glo), 0.271 µM; in the test with A431 (Table 8) it was 0.15 µM; in the test on NCI-H2073, 0.34 µM; in the test on HCC827_LTC, 0.00103 µM; in the test with HCC827_DTC, 0.00442 µM. Besides, the GI50 in the test with HCC827 is 0.00052 µM; in the test with BaF3_DTC it was 0.0158 µM. Further, in test [1], the DC50 stood at 0.0936 µM.
